# Experimental data published in patent US11685732B2, “MYST family histone acetyltransferase inhibitors” (Epizyme, Inc., priority 2017, dated 2023).
# pIC50: −log10 of the molar value. Where two headings read alike, the source gives them in different places.
# Assays:
# KAT-6A = KAT-6A (Homo sapiens (Human), UniProt Q92794); assay: KAT-6A biochemical inhibition assay (SAMDI mass spectrometry)
# Description: (§1) KAT-6A. Enzyme assay buffer was 50 mM Tris pH 8.0, 0.002% Tween20, 0.005% bovine skin gelatin, and 1 mM dithiothreitol (DTT). For determination of IC50 values, compounds were serially diluted with 2% (v/v) DMSO in the final reaction, pre-incubating each dilution of each compound with 40 μL of assay buffer containing KAT-6A enzyme (12.5 nM final concentration). 10 μL of assay buffer containing 1 μM peptide substrate and 1 μM acetyl coenzyme A (final concentrations) was added. Reactions (50 μL total) were then carried out at 25° C. for 90 minutes. Reactions were terminated by the addition of 0.5% formic acid (final concentration), and a sample of each reaction was analyzed by SAMDI Tech, Inc. (Chicago, Ill.) using self-assembled monolayer desorption/ionization time-of-flight mass spectrometry (Mrksich, M. (2008) Mass spectrometry of self-assembled monolayers: a new tool for molecular surface science. ACS Nano 2, 7-18).
# KAT-5 = KAT-5 (Homo sapiens (Human), UniProt Q92993); assay: KAT-5 biochemical inhibition assay (SAMDI mass spectrometry)
# Sequence of KAT-5 (Q92993 other isoform, or with tags, fused parts or gaps): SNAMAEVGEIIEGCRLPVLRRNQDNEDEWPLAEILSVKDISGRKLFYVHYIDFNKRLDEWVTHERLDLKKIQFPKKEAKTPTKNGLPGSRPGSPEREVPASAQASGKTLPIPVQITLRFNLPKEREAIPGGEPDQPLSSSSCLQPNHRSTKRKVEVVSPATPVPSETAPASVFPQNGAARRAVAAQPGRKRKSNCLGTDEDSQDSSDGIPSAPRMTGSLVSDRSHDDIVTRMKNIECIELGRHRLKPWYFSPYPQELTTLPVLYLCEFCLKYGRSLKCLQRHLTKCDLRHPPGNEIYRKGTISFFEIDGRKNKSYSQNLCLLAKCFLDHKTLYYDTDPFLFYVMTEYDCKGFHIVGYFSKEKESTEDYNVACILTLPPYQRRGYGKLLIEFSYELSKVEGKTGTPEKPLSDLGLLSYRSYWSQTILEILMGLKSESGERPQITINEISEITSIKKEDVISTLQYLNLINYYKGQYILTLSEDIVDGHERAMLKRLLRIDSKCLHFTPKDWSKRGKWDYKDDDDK
# Description: as §1, with “KAT-5. Enzyme assay” for “KAT-6A. Enzyme assay”, “buffer containing KAT-5 enzyme (9” for “buffer containing KAT-6A enzyme (12.5”, “KAT-5 enzyme (9 nM final” for “KAT-6A enzyme (12.5 nM final”, “substrate and 0.5 μM acetyl” for “substrate and 1 μM acetyl”
# KAT-8 = KAT-8 (Homo sapiens (Human), UniProt Q9H7Z6); assay: KAT-8 biochemical inhibition assay (SAMDI mass spectrometry)
# Sequence of KAT-8 (Q9H7Z6 other isoform, or with tags, fused parts or gaps): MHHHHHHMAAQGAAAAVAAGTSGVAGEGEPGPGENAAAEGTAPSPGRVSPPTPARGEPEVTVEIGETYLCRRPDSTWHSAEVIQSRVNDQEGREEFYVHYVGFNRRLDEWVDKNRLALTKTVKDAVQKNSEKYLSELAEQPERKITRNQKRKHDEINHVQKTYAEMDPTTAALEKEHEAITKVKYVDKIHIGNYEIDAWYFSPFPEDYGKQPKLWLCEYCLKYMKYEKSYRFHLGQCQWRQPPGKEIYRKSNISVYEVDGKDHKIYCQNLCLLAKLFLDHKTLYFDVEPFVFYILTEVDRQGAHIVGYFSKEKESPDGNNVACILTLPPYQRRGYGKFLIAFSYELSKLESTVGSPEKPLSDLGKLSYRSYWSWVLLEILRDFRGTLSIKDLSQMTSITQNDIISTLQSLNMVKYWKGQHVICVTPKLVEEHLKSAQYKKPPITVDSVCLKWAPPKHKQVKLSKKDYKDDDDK
# Description: as §1, with “KAT-8. Enzyme assay” for “KAT-6A. Enzyme assay”, “buffer containing KAT-8 enzyme (12.5” for “buffer containing KAT-6A enzyme (12.5”, “substrate and 5 μM acetyl” for “substrate and 1 μM acetyl”
# KAT-7 = KAT-7 (Homo sapiens (Human), UniProt O95251); assay: KAT-7 biochemical inhibition assay (SAMDI mass spectrometry)
# Sequence of KAT-7 (O95251 other isoform, or with tags, fused parts or gaps): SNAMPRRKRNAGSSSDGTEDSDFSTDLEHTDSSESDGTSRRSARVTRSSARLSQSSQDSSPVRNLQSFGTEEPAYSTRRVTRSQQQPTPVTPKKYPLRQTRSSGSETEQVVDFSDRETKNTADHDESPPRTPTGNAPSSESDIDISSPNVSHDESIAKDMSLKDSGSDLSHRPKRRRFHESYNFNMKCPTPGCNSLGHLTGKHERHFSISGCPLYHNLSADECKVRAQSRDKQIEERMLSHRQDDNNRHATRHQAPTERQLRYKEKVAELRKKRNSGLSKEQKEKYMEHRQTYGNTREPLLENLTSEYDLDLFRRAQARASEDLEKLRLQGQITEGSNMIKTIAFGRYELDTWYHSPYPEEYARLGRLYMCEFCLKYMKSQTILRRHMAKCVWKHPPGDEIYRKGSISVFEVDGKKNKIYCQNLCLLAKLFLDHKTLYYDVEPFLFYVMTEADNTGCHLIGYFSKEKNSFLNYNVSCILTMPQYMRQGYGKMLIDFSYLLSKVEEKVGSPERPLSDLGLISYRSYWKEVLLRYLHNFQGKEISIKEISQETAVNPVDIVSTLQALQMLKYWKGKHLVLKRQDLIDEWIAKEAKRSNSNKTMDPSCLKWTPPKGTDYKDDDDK
# Description: as §1, with “KAT-7. Enzyme assay” for “KAT-6A. Enzyme assay”, “buffer containing KAT-7 enzyme (6” for “buffer containing KAT-6A enzyme (12.5”, “KAT-7 enzyme (6 nM final” for “KAT-6A enzyme (12.5 nM final”, “substrate and 2 μM acetyl” for “substrate and 1 μM acetyl”, “C. for 120 minutes. Reactions” for “C. for 90 minutes. Reactions”
# Sequence of KAT-6A (Q92794 other isoform, or with tags, fused parts or gaps): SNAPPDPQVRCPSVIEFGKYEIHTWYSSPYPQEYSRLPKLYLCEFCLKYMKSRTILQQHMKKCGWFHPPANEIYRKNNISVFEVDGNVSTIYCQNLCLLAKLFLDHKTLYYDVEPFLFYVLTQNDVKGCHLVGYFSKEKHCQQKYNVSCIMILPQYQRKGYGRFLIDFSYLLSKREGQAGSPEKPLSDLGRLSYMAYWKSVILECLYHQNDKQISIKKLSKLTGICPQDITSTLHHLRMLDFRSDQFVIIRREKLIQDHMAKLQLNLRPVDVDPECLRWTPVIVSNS
SMILES,"pIC50 (KAT-6A; Table 6, comparative compounds)","pIC50 (KAT-5; Table 6, comparative compounds)","pIC50 (KAT-8; Table 6, comparative compounds)","pIC50 (KAT-7; Table 6, comparative compounds)",pIC50 (KAT-5),pIC50 (KAT-8),pIC50 (KAT-7),pIC50 (KAT-6A)
"Cc1cc(-c2ccccc2)cc(C(=O)NNS(=O)(=O)CC2CCCN(C(=O)OC(C)(C)C)C2)c1F (single isomer, unassigned) [B, reference compound]",≥ 5.00,≥ 5.00,4.00 to 4.30,≥ 5.00,,,,
Cc1c(-c2cc(Cl)c(F)c(C(=O)NNS(=O)(=O)CC3CCCCC3)c2)ncn1C [Compound I-38],,,,,> 5.00,< 4.00,> 5.00,
CC(C)S(=O)(=O)N1CCCC(CS(=O)(=O)NNC(=O)c2cc(-c3cn(C)cn3)cc(Cl)c2F)C1 (stereo not shown) [Compound I-98],,,,,> 5.00,4.30 to 5.00,> 5.00,
CC(=O)NC1CCCC(CS(=O)(=O)NNC(=O)c2cc(-c3cn(C)cn3)cc(Cl)c2F)C1 (stereo not shown) [Compound I-99],,,,,> 5.00,4.30 to 5.00,> 5.00,
CCNC(=O)N1C[C@H](CS(=O)(=O)NNC(=O)c2cc(-c3cn(C)cn3)cc(Cl)c2F)[C@@H](C)C1 [Compound I-271],,,,,4.30 to 5.00,4.30 to 5.00,,4.30 to 5.00
Cn1cnc(-c2cc(Cl)c(F)c(C(=O)NNS(=O)(=O)CC3CCOC3)c2)c1 (stereo not shown) [Compound I-272],,,,,> 5.00,4.30 to 5.00,,> 5.00
Cn1cnc(-c2cc(Cl)c(F)c(C(=O)NNS(=O)(=O)CC3CCCOC3)c2)c1 (stereo not shown) [Compound I-273],,,,,> 5.00,4.30 to 5.00,,> 5.00
CN(C(=O)OC(C)(C)C)C1CCCC(CS(=O)(=O)NNC(=O)c2cc(-c3cn(C)cn3)cc(Cl)c2F)C1 (stereo not shown) [Compound I-274],,,,,> 5.00,4.30 to 5.00,,> 5.00
Cn1cnc(-c2cc(Cl)c(F)c(C(=O)NNS(=O)(=O)CC34CC5CC(CC(C5)C3)C4)c2)c1 [Compound I-275],,,,,> 5.00,4.30 to 5.00,,> 5.00
Cn1cnc(-c2cc(Cl)c(F)c(C(=O)NNS(=O)(=O)CC3CCCO3)c2)c1 (stereo not shown) [Compound I-276],,,,,> 5.00,4.30 to 5.00,,> 5.00
CC(=O)N1[C@H]2CC[C@@H](CS(=O)(=O)NNC(=O)c3cc(-c4cn(C)cn4)cc(Cl)c3F)[C@@H]1CC2 [Compound I-277],,,,,> 5.00,4.30 to 5.00,,> 5.00
COC1CCC(CS(=O)(=O)NNC(=O)c2cc(-c3cn(C)cn3)cc(Cl)c2F)CC1 (stereo not shown) [Compound I-278],,,,,> 5.00,4.30 to 5.00,,> 5.00
Cn1cnc(-c2cc(Cl)c(F)c(C(=O)NNS(=O)(=O)CC3CCCCO3)c2)c1 (stereo not shown) [Compound I-279],,,,,> 5.00,4.30 to 5.00,,> 5.00
CN(C(=O)OC(C)(C)C)C1CC(CS(=O)(=O)NNC(=O)c2cc(-c3cn(C)cn3)cc(Cl)c2F)C1 (stereo not shown) [Compound I-390],,,,,> 5.00,< 4.00,,4.30 to 5.00
Cn1cnc(-c2cc(Cl)c(F)c(C(=O)NNS(=O)(=O)c3cccc(O)n3)c2)c1 [Compound I-391],,,,,> 5.00,4.00 to 4.30,,> 5.00
Cn1cnc(-c2cc(Cl)c(F)c(C(=O)NNS(=O)(=O)c3cccc(N)n3)c2)c1 [Compound I-392],,,,,> 5.00,< 4.00,,> 5.00
Cn1cnc(-c2cc(Cl)c(F)c(C(=O)NNS(=O)(=O)c3cccc(NCc4ccccc4)n3)c2)c1 [Compound I-393],,,,,> 5.00,< 4.00,,> 5.00
CN(CCOc1ccc(S(=O)(=O)NNC(=O)c2cc(-c3cn(C)cn3)cc(Cl)c2F)cc1)C(=O)OC(C)(C)C [Compound I-394],,,,,4.30 to 5.00,< 4.00,,4.30 to 5.00
CNC1CC(CS(=O)(=O)NNC(=O)c2cc(-c3cn(C)cn3)cc(Cl)c2F)C1 (stereo not shown) [Compound I-395],,,,,4.30 to 5.00,< 4.00,,4.30 to 5.00
Cn1cnc(-c2cc(Cl)c(F)c(C(=O)NNS(=O)(=O)CC3CCC(C)(C)CC3)c2)c1 [Compound I-396],,,,,> 5.00,4.30 to 5.00,,> 5.00
